Drawing on patent US8461328B2, “Tricyclic heterocyclic compounds, compositions and methods of use thereof” (Genentech, Inc., priority 2010, dated 2013), this text covers Ki for eleven molecules.

Common to all, as to format: biochemical
One experiment deals with T1, JAK2 (Homo sapiens, UniProt O60674).
T1 construct: made in house; host or cells: SF9 insect cells (baculovirus)
Put plainly: JAK2 inhibition (Table 4). As to conditions: read-out: JAK2 Ki.

For the next experiment, the target named is T2, TYK2 (Homo sapiens, UniProt P29597).
T2 construct: made in house; host or cells: SF9 insect cells (baculovirus)
T2 sequence (P29597 873-1187): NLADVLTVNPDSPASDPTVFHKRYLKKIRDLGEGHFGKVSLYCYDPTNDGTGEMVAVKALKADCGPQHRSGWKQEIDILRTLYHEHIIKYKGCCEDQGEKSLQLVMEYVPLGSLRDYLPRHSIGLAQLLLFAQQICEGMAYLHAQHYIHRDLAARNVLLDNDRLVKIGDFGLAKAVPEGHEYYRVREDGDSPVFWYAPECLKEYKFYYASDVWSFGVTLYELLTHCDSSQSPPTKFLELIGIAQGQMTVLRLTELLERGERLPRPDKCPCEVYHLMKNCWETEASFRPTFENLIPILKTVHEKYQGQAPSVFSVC
Briefly: TYK2 inhibition (Table 4).

The target of a further experiment is T3, JAK1 (Homo sapiens, UniProt P23458).
T3 construct: made in house; host or cells: SF9 insect cells (baculovirus)
Briefly: JAK1 inhibition (Table 4). As to conditions: read-out: JAK1 Ki.

The target in another experiment is T4, JAK3 (Homo sapiens, UniProt P52333).
T4 construct: made in house; host or cells: SF9 insect cells (baculovirus)
Put plainly: JAK3 inhibition (Table 4). Particulars: read-out: JAK3 Ki.

T1 sequence (O60674 812-1132): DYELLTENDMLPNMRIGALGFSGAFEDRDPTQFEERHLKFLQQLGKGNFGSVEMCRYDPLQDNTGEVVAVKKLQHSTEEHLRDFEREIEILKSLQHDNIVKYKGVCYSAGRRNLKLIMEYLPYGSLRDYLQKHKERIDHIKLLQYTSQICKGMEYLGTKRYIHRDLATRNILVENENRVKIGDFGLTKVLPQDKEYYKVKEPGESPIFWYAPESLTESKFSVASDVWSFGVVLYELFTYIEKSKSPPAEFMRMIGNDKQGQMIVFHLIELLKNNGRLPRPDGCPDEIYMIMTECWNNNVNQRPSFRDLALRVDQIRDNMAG
T4 sequence (P52333 783-1124): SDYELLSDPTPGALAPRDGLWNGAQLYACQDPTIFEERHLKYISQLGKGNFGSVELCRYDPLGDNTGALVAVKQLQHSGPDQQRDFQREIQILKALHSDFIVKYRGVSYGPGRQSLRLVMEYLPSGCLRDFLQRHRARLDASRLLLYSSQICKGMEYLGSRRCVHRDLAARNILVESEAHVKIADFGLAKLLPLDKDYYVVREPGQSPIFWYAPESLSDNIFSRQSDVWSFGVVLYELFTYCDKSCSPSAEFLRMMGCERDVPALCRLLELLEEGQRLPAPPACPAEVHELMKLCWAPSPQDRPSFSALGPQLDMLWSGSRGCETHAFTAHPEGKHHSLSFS
T3 sequence (P23458 852-1154): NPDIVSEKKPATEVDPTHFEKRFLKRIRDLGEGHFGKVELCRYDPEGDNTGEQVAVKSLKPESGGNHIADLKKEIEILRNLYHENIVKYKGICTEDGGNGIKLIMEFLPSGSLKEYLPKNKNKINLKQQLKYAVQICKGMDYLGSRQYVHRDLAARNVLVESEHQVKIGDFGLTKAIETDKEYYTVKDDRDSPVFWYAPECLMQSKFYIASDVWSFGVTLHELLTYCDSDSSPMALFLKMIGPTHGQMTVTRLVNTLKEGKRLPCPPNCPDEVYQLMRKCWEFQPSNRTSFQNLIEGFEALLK

For the molecule `CCN1CCC(n2c([C@@H](C)O)nc3cnc4[nH]ccc4c32)C(F)(F)C1` (single isomer, unassigned) [Example 879], the Ki on JAK2 was 22.2 nM; on TYK2, 26.5 nM; on JAK1, 3.88 nM; at JAK3, 27.9 nM.
The corresponding values for `CCN1CCC(n2c([C@@H](C)O)nc3cnc4[nH]ccc4c32)C(F)(F)C1` (single isomer, unassigned) [Example 880] are 19.4 nM, 24.7 nM, 1.95 nM and 4.97 nM.
The corresponding values for `CC(O)c1nc2cnc3[nH]ccc3c2n1C1CC2CCC1O2` (single isomer, unassigned) [Example 905, (o)-1-[1-(7-Oxa-bicyclo[2.2.1]hept-2-yl)-1,6-dihydro-1,3,5,6-tetraaza-as-indacen-2-yl]-ethanol] are 96.4 nM, 57.1 nM, 14.7 nM and 128 nM.
For the molecule `CC(O)c1nc2cnc3[nH]ccc3c2n1C1CC2CCC1O2` (single isomer, unassigned) [Example 907, (o)-1-[1-(7-Oxa-bicyclo[2.2.1]hept-2-yl)-1,6-dihydro-1,3,5,6-tetraaza-as-indacen-2-yl]-ethanol], the Ki at JAK2 was determined as 142 nM; on TYK2, 76.9 nM; on JAK1, 24 nM; on JAK3, 195 nM.
Consider `CC(O)c1nc2cnc3[nH]ccc3c2n1C1CC2CCC1O2` (single isomer, unassigned) [Example 936, (endo)-1-[1-(7-Oxa-bicyclo[2.2.1]hept-2-yl)-1,6-dihydro-1,3,5,6-tetraaza-as-indacen-2-yl]-ethanol], for which the Ki on JAK2 was found to be 403 nM; at TYK2 it was 215 nM; on JAK1, 79.8 nM; on JAK3, 334 nM.
The corresponding values for `CC(O)c1nc2cnc3[nH]ccc3c2n1C1CC2CCC1O2` (single isomer, unassigned) [Example 937, Endo-1-[1-(7-Oxa-bicyclo[2.2.1]hept-2-yl)-1,6-dihydro-1,3,5,6-tetraaza-as-indacen-2-yl]-ethanol] are 174 nM, 144 nM, 80.5 nM and 73.3 nM.
The corresponding values for `C[C@@H](O)c1nc2cnc3[nH]ccc3c2n1C1CCNCC1(F)F` (single isomer, unassigned) [Example 939] are 18.1 nM, 7.2 nM, 0.68 nM and 5.58 nM.
The corresponding values for `c1cc2c(ncc3ncn([C@@H]4CCCNC4)c32)[nH]1` [Example 2, (R)-1-Piperidin-3-yl-1,6-dihydro-1,2,3,5,6-tetraaza-as-indacene] are 518 nM, 1510 nM, 177 nM and 913 nM.
Take `CC(C)(C)OC(=O)N1CC(n2cnc3cnc4[nH]ccc4c32)C1` [Example 3, 3-(6H-1,2,3,5,6-Tetraaza-as-indacen-1-yl)-azetidine-1-carboxylic acid tert-butyl ester]: the inhibition constant (Ki) at JAK2 was 191 nM; on TYK2, 1640 nM; at JAK1, 348 nM; on JAK3, 905 nM.
The corresponding values for `O=C(c1ccccc1)N1CCC[C@@H](n2cnc3cnc4[nH]ccc4c32)C1` [Example 6, Phenyl-[(R)-3-(6H-1,2,3,5,6-tetraaza-as-indacen-1-yl)-piperidin-1-yl]-methanone] are 21.4 nM, 134 nM, 11.9 nM and 373 nM.
Consider `O=C(Cc1ccccc1)N1CCC(n2cnc3cnc4[nH]ccc4c32)CC1` [Example 7, 2-Phenyl-1-[4-(6H-1,2,3,5,6-tetraaza-as-indacen-1-yl)-piperidin-1-yl]-ethanone], for which the Ki on JAK2 turned out to be 13.3 nM; on TYK2, 64.6 nM; at JAK1 it was 8.6 nM; at JAK3, 283 nM.

One may read the Ki as a measure of affinity in units of concentration, obtained from inhibition or displacement.
